Source: US20260048145A1, “COMPOSITIONS AND METHODS FOR TREATING DRUG ADDICTION” (The Children's Medical Center Corporation, priority 2022, published 2026)

What was measured:
[1] = test system: hM4Di-expressing Tac2+ neurons; assay: cFos induction after CNO following cocaine exposure, chemogenetic inhibition; format: in vivo, mice; settings: CNO 5 mg/kg i.p.
[2] = test system: hM3Dq-expressing Tac2+ neurons; assay: cFos induction after CNO, chemogenetic activation; format: in vivo, mice; settings: CNO 2 mg/kg i.p.
Procedure: Mice were transcardially perfused with PBS followed by 4% paraformaldehyde. Brains were then placed in a 30% sucrose solution for 2 days. The brains were frozen in Optimal Cutting Temperature (OCT) embedding media and 16 μm (for FISH) or 40 μm (for IF) coronal sections were cut with a vibratome (Leica, no. CM3050 S). For FISH experiments, the slices were mounted on SuperFrost Plus slides, and air dried. The multi-color FISH experiments were performed following the instructions of RNAscope Fluorescent Multiplex Assay (ACD Bioscience). For IF, cryostat sections were collected and incubated overnight with blocking solution (1×PBS containing 5% goat serum, 2.5% BSA, and 0.1% Triton X-100), and then treated with the following primary antibodies, diluted with blocking solution, for 1 day at 4° C.: rabbit anti-cFos (1:2000, Synaptic systems, #226003), chicken anti-GFP (1:2000, Aves Labs, no. GFP-1010), and chicken anti-mCherry (1:2000, Novus Biologicals, no. NBP2-25158). Samples were then washed three times with washing buffer (1×PBS containing 0.1% Triton X-100) and incubated with the Alexa Fluor conjugated secondary antibodies for 2 h at room temperature. The sections were mounted and imaged using a Zeiss LSM800 confocal microscope or an Olympus VS120 Slide Scanning System. […]

[3] = test system: hM3Dq-expressing Tac2+ neurons; assay: Cocaine-CPP with chemogenetic excitation of Tac2+ neurons; format: in vivo; settings: CNO 2 mg/kg plus cocaine 15 mg/kg; hM3Dq-expressing mice
Procedure: (§1) To this end, a Cre-dependent AAV encoding a modified human M3 muscarinic receptor (hM3Dq) was introduced into NAc of Tac2-Cre mice (FIG. 5E). […] The cocaine-CPP test was then repeated, in which mice were conditioned with cocaine plus CNO in one chamber, while with saline in the other chamber. […] To test the effect of Tac2 neuronal inhibition on cocaine-CPP, a subthreshold cocaine CPP paradigm was applied, in which mice were conditioned with a lower dose of cocaine (10 mg/kg i.p.) in a shorter conditioning session (15-minutes per session)^10,46.
(§2) A two-compartment CPP chamber was used with one compartment with grid rod style floor and the other with mesh style floor (Med Associates). Chamber size is 25×19×17 cm (L×D×H). Mice trajectories were tracked by infra-red photobeam detectors, and the travel distance and the duration the mice spent in the two compartments were recorded. […]
(§3) For hM3Dq chemogenetics experiments, the Tac2-Cre mice were conditioned for two days to saline/saline injections in one chamber in the morning, and CNO (2 mg/kg)/cocaine (15 mg/kg) injection in the other in the afternoon (30 minutes confinement, 6 hours apart). […] The time spent in the cocaine-coupled chambers was recorded, and the CPP scores were calculated by subtracting the time spent in the pre-conditioning phase from the time spent in the post-conditioning phase.

[4] = test system: Tac2+ neurons (hM3Dq / hM4Di); assay: Basal and cocaine-induced locomotion with chemogenetic manipulation of Tac2+ neurons; format: in vivo; settings: CNO; hM3Dq or hM4Di mice; 1-hour post-treatment
Procedure: The experiment was conducted in an 8-chamber activity monitor system (Med Associates). Each test chamber (ENV-510 boxes) consists of a 27 cm×27 cm square base and 24-cm walls. […] Activity Monitor software (Med Associates) was used to generate trajectory maps. The distance traveled in the arena, and time spent in the center part of the arena, were recorded and analyzed. After each test session, the chambers were cleaned thoroughly with 20% ethanol.
The basal level of locomotion as well as cocaine-induced change of locomotor activity were assessed in the open field arena the same as the OFT. For chemogenetics experiments, 20 minutes after administration of either saline or CNO, mice were individually placed in the center of the test chamber, triggering the infra-red tracking system to record locomotor activity, as measured by the number of beam breaks. […] Different groups of mice were balanced across the 8 chambers to avoid potential environmental bias.

[5] = test system: hM4Di-expressing Tac2+ neurons; assay: Subthreshold cocaine-CPP with chemogenetic inhibition of Tac2+ neurons; format: in vivo, mice; settings: CNO 5 mg/kg i.p.; cocaine 10 mg/kg i.p., 15-minutes sessions
Procedure: as §1, §2, §3

[6] = test system: hM4Di-expressing Tac2+ neurons; assay: Cocaine intravenous self-administration (cocaine-IVSA) with chemogenetic inhibition; settings: CNO 5 mg/kg
[7] = test system: hM3Dq-expressing Tac2+ neurons; assay: Cocaine intravenous self-administration (cocaine-IVSA) with chemogenetic excitation; settings: CNO 2 mg/kg
NAc Tac2+ neurons [8] = assay: Single-cell calcium imaging during cocaine-conditioned place preference; format: in vivo, mice; settings: post-conditioning
Procedure: Next, the dynamics of Tac2 neuronal activity was analyzed during cocaine reward-contextual association. To this end, single-cell calcium imaging was applied to a cocaine-conditioned place preference (CPP) test (FIG. 3A). In the pre-conditioning session, mice were allowed to freely explore the two chambers with differential contextual patterns while calcium signal being recorded. In the conditioning sessions, mice were given alternate saline and cocaine (15 mg/kg) injections (6 hours apart) and were confined to a specific chamber paired with saline or cocaine. In the post-conditioning session, mice were again allowed to freely explore the two chambers while calcium signal being recorded (FIG. 3A). […] After extracting the calcium signal traces, and corresponding calcium signal transients of individual neurons in pre-conditioning and post-conditioning sessions, signal traces or transient frequencies were compared during the periods when mice are in saline-coupled chamber or cocaine-coupled chamber (staying time>5 seconds). […] To further validate these findings, calcium activity traces were analyzed when mice stayed in the saline chamber or cocaine chamber. […] Moreover, by focusing on the short period around the mice entering the cocaine chamber (−5 seconds to 5 seconds, regarding the entering as 0 second), it was determined that the neuronal activity of the cocaine chamber excited neurons (neurons with […] calcium signal in cocaine chamber) increased rapidly when mice entered the cocaine chamber, while the cocaine chamber inhibited neurons (neurons with […] calcium signal in cocaine chamber) decreased their activity when mice entered the cocaine chamber (FIGS. 3F-3G).
Custom-made two-compartment CPP chambers (50×25×25 cm, L×D×H) were used with visual cues: the floor and the walls of one chamber were decorated with black horizontal stripes and the other chamber was decorated with yellow diagonal stripes. The modified cocaine-CPP consists of three sessions. […] The time spent in different chambers was recorded, the less preferred chamber was assigned as the cocaine chamber and used to condition cocaine injections, while the other chamber was assigned as the saline chamber and used to condition saline injections. […] Finally, the next day following conditioning, in the post-condition recording session, calcium activity of mice was again recorded while freely exploring the two chambers for 15 minutes. The mouse trajectories were recorded using a webcam (Logitech) with top view, and the time when the mice staying or entering chambers was analyzed using Etho Vision XT 11 (Noldus) and was also manually inspected. […]

[9] = after administration; cited from earlier work
NAc Tac2+ neurons [10] = assay: Single-cell calcium imaging of Tac2+ neurons following acute cocaine injection; format: in vivo, mice; settings: for recorded Tac2+ neurons showing decreased activity / recorded Tac2+ neurons showing increased activity: cocaine 15 mg/kg i.p.
Text: To explore a potential role for Tac2^+ neurons in drug-related behavior, Tac2 neuronal activity was monitored using single-cell calcium imaging upon psychostimulant drug (cocaine) treatment. To this end, GCaMP6m, which reports calcium fluctuations and serves as a proxy for neuronal activity, was virally delivered into the NAc of Tac2-Cre mice using known techniques^41, and the fluorescence signal was monitored by a skull-attached miniaturized microscope through a gradient-index (GRIN) lens implanted above the virus injection site (FIG. 2B, FIGS. 1C-1D). […] After extracting calcium signal traces and corresponding calcium signal transients of individual neurons from raw imaging video (FIG. 2C, FIG. 1E), the Tac2 neuronal response to saline and cocaine administration was analyzed. The calcium transient frequency from 6 mice (saline: 361 neurons, cocaine 356 neurons) were sorted and presented as heatmaps (FIG. 2D). […] The neuronal activity of cocaine excited/inhibited Tac2^+ neurons in the initial phase were substantially altered following cocaine injection and later partially recovered in the decay phase (FIG. 2I). To further validate these findings, calcium activity traces were analyzed before and after saline or cocaine injection. 3.0-fold more cocaine inhibited neurons than cocaine excited neurons in the initial phase (FIGS. 1F-1H).
Two weeks after GRIN lens implantation surgery, a baseplate was implanted to mount the miniature microscope and to check the fluorescence signal. Freely moving in vivo imaging can be performed after the nVoke microscope (Inscopix) is attached to the fixed baseplate. All recordings were made at 10 frames per second, LED intensities were 0.6˜1.2 mW, and gain (1.5×) was used. The calcium traces were extracted using Inscopix Data Processing Software (version 1.6, Inscopix). The raw recording videos were cropped, spatially down-sampled (2×), spatially filtered (cut-offs: low 0.005 pixel^−1, high 0.500 pixel^−1), and motion-corrected (using a reference frame from the input movie). The spatial location of individual neurons and their associated calcium activity signals were identified using the extended constrained non-negative matrix factorization (CNMF-E) CNMF-c algorithm^53,54 and outputted temporal traces as dF over noise. The identified neurons were manually checked to exclude overlapping neurons, blood vessels, or fluorescent debris moving in and out of focus. The calcium signal traces were further deconvolved using OASIS (online active set method to infer spikes) methods to estimate underlying calcium signal transients. The data matrix containing calcium signal traces and calcium signal transients were subjected to custom MATLAB code for further analysis.
Mice were tested in the homecages and were pre-habituated in the test room and they received 3-day saline injection to reduce stress. On day 1, mice were attached with nVoke microscope 30 minutes before experiment. Prior to injection, 10 minute baseline was recorded, then mice were intraperitoneally injected with saline, and a 10 minute recording was performed after the injection. On day 2, mice were again attached with n Voke microscope, and recorded for 10 minute baseline. Then mice were injected with cocaine (15 mg/kg) intraperitoneally. The post-injection initial phase (0-10 minutes) and decay phase (50-60 minutes) were recorded. Two data sets of neuronal activity were used: calcium signal traces over time or calcium signal transients over time, to analyze treatment (saline or cocaine injection) responsive neurons (excited or inhibited by treatment), 10-minute windows of pre- and post-injection were compared. For saline injection responsive neurons, saline (−10-0 minutes) and saline (0-10 minutes) responses of the two groups were compared. For cocaine injection responsive neurons, the initial phase (0-10 minutes) and the decay phase (50-60 minutes) were compared with the pre-injection phase (−10-0 minutes). […]

Tac2 mRNA = assay: Cocaine-CPP after shRNA knock-down of Tac2 in NAc; format: in vivo, mice; settings: AAV Tac2 shRNA vs control shRNA, bilateral NAc injection
Procedure: Numbers were calculated by summating Tac2^+ cells in serial 3 slides of the NAc region of individual mice (˜Bregma+1.2). […] Mice were subjected to 2-days conditioning, with each morning given saline injection followed by confined to saline-coupled chamber for 30 minutes, and in the afternoon, mice were given cocaine injection followed by confined to cocaine chamber for 30 minutes. Left: time spent in the cocaine-paired chambers pre- and post-conditioning, ****, p<0.0001, paired t-test. Right: the CPP scores were calculated by subtracting the time spent in pre-conditioning phase from the time spent in post-conditioning phase, ns, p=0.0975, unpaired t-test. […] FIGS. 10G-10I show dose-dependent response under cocaine-IVSA of Tac2 knockdown mice. The numbers of lever presses (FIG. 10G). Lever accuracy (FIG. 10H), and numbers of infusions (FIG. 10I) are shown. Data in FIGS. 10B-10I are presented as mean±SEM.
Using calcium recording and neuronal activity manipulation, a causal relationship has been established between Tac2 neuronal activity and cocaine-associated behaviors (CPP and IVSA). It was then explored how Tac2^+ neurons might execute their functions. […]
Small hairpin RNA (shRNA) for mouse Tac2 gene (NM_009312.2) were selected based on previous studies^50. […] The AAV viruses were injected into NAc regions and knock-down efficiency were evaluated by Tac2 RNA FISH.

[11] = decay phase 50-60 minutes, calcium transient frequency
[12] = initial phase 0-10 minutes, calcium transient frequency, 356 neurons, 6 mice

C[N+]1([O-])CCN(C2=Nc3cc(Cl)ccc3Nc3ccccc32)CC1 [CNO, clozapine-N-oxide]
cFos induction in hM4Di-expressing neurons following cocaine exposure [1]: significantly decreased | cFos induction in hM3Dq-expressing neurons [2]: resulted in cFos induction | cFos induction in mCherry-expressing (control) neurons [2]: not in the mCherry-expressing neurons | cocaine-induced CPP [3]: completely abolished | basal locomotion [4]: affected neither basal locomotion | cocaine-induced hyperlocomotion [4]: nor cocaine-induced hyperlocomotion | cocaine CPP in hM4Di-expressing vs mCherry-expressing mice [5]: significantly higher | cocaine infusions, hM4Di vs mCherry group [6]: significantly lower number of cocaine infusions | lever presses, hM4Di vs mCherry group [6]: significantly higher number of lever presses | lever accuracy, hM4Di vs mCherry group ([6]; 0.33 mg/kg/infusion): comparable lever accuracy | cocaine infusions, hM3Dq vs mCherry group [7]: fewer cocaine infusions | lever accuracy, hM3Dq vs mCherry group ([7]; 0.33 mg/kg/infusion): reduced lever accuracy | lever presses, hM3Dq vs mCherry group ([7]; cocaine 0.03, 0.1, 0.3, 1 mg/kg/infusion): significantly fewer lever presses

COC(=O)[C@H]1[C@@H](OC(=O)c2ccccc2)C[C@@H]2CC[C@H]1N2C [cocaine]
neurons excited in the cocaine chamber (NAc Tac2+ neurons [8]; calcium activity traces, 40 of 370): 10.8% | neurons inhibited in the cocaine chamber (NAc Tac2+ neurons [8]; calcium activity traces, 59 of 370): 16.0% | Tac2+ neurons with elevated activity in the cocaine chamber (NAc Tac2+ neurons [8]; calcium transient frequency, 16 of 370): 4.3% | Tac2+ neurons with reduced activity in the cocaine chamber (NAc Tac2+ neurons [8]; calcium transient frequency, 62 of 370): 16.8% | decay of cocaine levels in brain and plasma [9]: decay one hour later | time to peak of cocaine levels in brain and plasma [9]: ≤ 10 min | initial phase cocaine excited neurons still excited in the decay phase (NAc Tac2+ neurons [10]; 29/49 neurons): 59.2% | initial phase cocaine inhibited neurons still inhibited in the decay phase (NAc Tac2+ neurons [10]; 30/117 neurons): 25.6% | recorded Tac2+ neurons showing decreased activity (NAc Tac2+ neurons [10]; [11]): 14.9% | recorded Tac2+ neurons showing increased activity (NAc Tac2+ neurons [10]; [11]): 11.5% | recorded Tac2+ neurons showing decreased activity (NAc Tac2+ neurons [10]; [12]): 32.9% | recorded Tac2+ neurons showing increased activity (NAc Tac2+ neurons [10]; [12]): 13.8% | cocaine inhibited neurons compared to cocaine excited neurons (NAc Tac2+ neurons [10]; initial phase, calcium activity traces): 3.0 fold | Tac2+ neurons inhibited by cocaine compared to those excited (NAc Tac2+ neurons [10]; initial phase, calcium transient frequency): 2.4 fold

B1: Tac2-shRNA: AAV construct expressing small hairpin RNA for mouse Tac2 gene (SEQ ID NO: 3, 4) (nucleic acid, listed as Mus musculus)
sense: GATCCGCCGCCTCAACCCCATAGCAATTAGAAGCTTGTAATTGCTATGGGGTTGAGGCTTTTTTT
cocaine-induced place preference (Tac2 mRNA): neither affected
